Our source for the GI50 and TGI values is PubChem BioAssay (NCI).

Among the test systems are BT-549 breast; HCT-15 colon; LOX IMVI melanoma; MCF7 breast; NCI-H23 lung; OVCAR-3 ovarian; SW-620 colon.
Common to all, as to assay: NCI-60 cell line screen, 48 h

Several values for one entry are separate records, joined by “and”; a condition that tells them apart may be missing. Identical values can stand only once.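 Interpolation was linear, between the two tested concentrations surrounding the appropriate level; five concentrations were tested over 48 hours in 96-well plates. Abbreviation: GI50, concentration required for 50% inhibition of growth. At the TGI there is no net growth.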

With `O=C(/C=C/c1ccccc1)n1c(-c2ccc(Cl)cc2)nc2ccccc21`, the GI50 is 1.67 µM in the test with BT-549 breast; 1.34 µM with HCT-15 colon; 0.588 µM in the test with LOX IMVI melanoma; 1.01 µM with MCF7 breast; 1.91 µM in the test on NCI-H23 lung; 1.11 µM with OVCAR-3 ovarian. Also, in the test with SW-620 colon, the GI50 was 1.45 µM. Further, the TGI was determined as 3.22 µM in the test with BT-549 breast; 7.06 µM in the test with HCT-15 colon; 1.91 µM in the test with LOX IMVI melanoma; 9.92 µM in the test with MCF7 breast; 4.89 µM with NCI-H23 lung; 2.64 µM with OVCAR-3 ovarian. Moreover, in the test with SW-620 colon, the TGI is 5.03 µM.
Take `Cc1ccc(C)c(C2NC(=O)c3ccccc3N2)c1` (stereo not given): the TGI was over 71.6 µM with BT-549 breast; 50.6 µM with HCT-15 colon; over 100 µM in the test with LOX IMVI melanoma; over 84.5 µM in the test with MCF7 breast; over 62.1 µM in the test on NCI-H23 lung; 0.997 µM in the test with OVCAR-3 ovarian. In addition, in the test on SW-620 colon, the TGI is over 49.6 µM.
As to `Cc1sc2c(c1C)C(c1ccc(Cl)cc1)=N[C@@H](CC(=O)OC(C)(C)C)c1nnc(C)n1-2`, the GI50 with BT-549 breast was 1.15 µM and 3.1 µM; in the test with HCT-15 colon, 0.308 µM and 0.157 µM; in the test on LOX IMVI melanoma, 0.22 µM and 0.0673 µM; with MCF7 breast, 0.117 µM and 0.06 µM; with NCI-H23 lung it was 0.45 µM and 0.28 µM; in the test on OVCAR-3 ovarian, 1.24 µM and 0.498 µM. Besides, the GI50 with SW-620 colon was 10.9 µM and 4.09 µM. Besides, the TGI in the test on BT-549 breast was 20.8 µM and 20 µM; with HCT-15 colon it was 13.4 µM and 13.7 µM; with LOX IMVI melanoma it was 11.2 µM and 13.9 µM; in the test on MCF7 breast, 17.9 µM and 13.6 µM; with NCI-H23 lung, 18.7 µM and 18.6 µM; in the test on OVCAR-3 ovarian it was 18 µM and 15.6 µM. In addition, the TGI in the test on SW-620 colon was 28.1 µM and 22.9 µM.
Regarding `SCCSCCCSCCS`, the TGI in the test on BT-549 breast, in the test on HCT-15 colon, in the test on LOX IMVI melanoma, in the test with MCF7 breast, in the test with NCI-H23 lung and with OVCAR-3 ovarian was over 100 µM in each case. The TGI in the test with SW-620 colon was over 100 µM.
As for `CCCC(CCC)C(=O)OCC1(CO)C/C(=C\c2ccc(F)cc2)C(=O)O1` (stereo not given), the GI50 in the test on BT-549 breast was 7.25 µM; in the test with HCT-15 colon, 12.5 µM; in the test with LOX IMVI melanoma, 11.2 µM; with MCF7 breast, 15.5 µM; with NCI-H23 lung, 12.4 µM; in the test on OVCAR-3 ovarian, 17.1 µM. The GI50 in the test with SW-620 colon was 6.93 µM. The TGI with BT-549 breast was 22.6 µM; in the test with HCT-15 colon, 26.2 µM; in the test on LOX IMVI melanoma, 24.5 µM; in the test with MCF7 breast, 31.4 µM; in the test on NCI-H23 lung, 26.7 µM; in the test on OVCAR-3 ovarian it was 31.2 µM. In addition, in the test with SW-620 colon, the TGI amounted to 20.7 µM.
With `O=C(O)C(Cl)(c1ccccc1)c1ccccc1`, the TGI with BT-549 breast, in the test on HCT-15 colon, in the test on LOX IMVI melanoma, with MCF7 breast, in the test with NCI-H23 lung and with OVCAR-3 ovarian was over 100 µM each time. The same compound came in with a TGI in the test on SW-620 colon of over 100 µM.
Take `CCn1c(-c2cc3ccccc3cc2O)nn(C(=O)c2c(Cl)cccc2Cl)c1=S`: the GI50 in the test with BT-549 breast was 15.6 µM; with HCT-15 colon, 16.3 µM; with LOX IMVI melanoma, over 50 µM; with MCF7 breast, over 50 µM; in the test with NCI-H23 lung, 20.3 µM; in the test on OVCAR-3 ovarian it was 23.7 µM. In the test on SW-620 colon, the GI50 was 15.3 µM. In addition, the TGI is 36.7 µM with BT-549 breast; over 50 µM with HCT-15 colon; over 50 µM in the test with LOX IMVI melanoma; over 50 µM with MCF7 breast; over 50 µM in the test with NCI-H23 lung; over 50 µM with OVCAR-3 ovarian. The compound further yielded a TGI with SW-620 colon of over 50 µM.
In the case of `COc1cccc(C2c3cc4c(cc3OC(N3CCCC3)C2C)OCO4)c1O` (stereo not given), the TGI in the test with BT-549 breast is over 43 µM; in the test with HCT-15 colon it was 38.4 µM; in the test with LOX IMVI melanoma, over 66.2 µM; in the test on MCF7 breast, over 83.6 µM; with NCI-H23 lung, 34.9 µM; in the test on OVCAR-3 ovarian, 8.02 µM. The TGI in the test on SW-620 colon was over 100 µM.
As to `COc1cc(CNc2ccccc2C(=O)N2CCN(C(=O)c3cc(-c4cc(OC)c(OC)c(OC)c4)n4nc(-c5ccccc5)cc4n3)CC2)cc(OC)c1OC`, the GI50 was 3.27 µM with BT-549 breast; 4.25 µM in the test with HCT-15 colon; 4.86 µM in the test on LOX IMVI melanoma; 3.01 µM with MCF7 breast; 4.96 µM in the test with NCI-H23 lung; 2.69 µM with OVCAR-3 ovarian. Also, the GI50 with SW-620 colon is 3.67 µM. For the same compound, the TGI was 49.1 µM in the test with BT-549 breast; over 100 µM with HCT-15 colon; over 100 µM in the test with LOX IMVI melanoma; over 100 µM in the test with MCF7 breast; over 100 µM with NCI-H23 lung; 9.59 µM in the test with OVCAR-3 ovarian. Besides, in the test on SW-620 colon, the TGI was over 100 µM.
Consider `OCC(O)c1nc2ccc3[nH]ncc3c2c2c1CCCC2` (stereo not given), for which the GI50 in the test with BT-549 breast was 0.934 µM; with HCT-15 colon, 1.5 µM; in the test on LOX IMVI melanoma, 1.1 µM; in the test on MCF7 breast, 0.931 µM; with NCI-H23 lung it was 1.07 µM; with OVCAR-3 ovarian, 1.67 µM. Also, in the test with SW-620 colon, the GI50 was 1.3 µM. For the same compound, the TGI with BT-549 breast is 2.2 µM; in the test with HCT-15 colon, over 50 µM; with LOX IMVI melanoma, 3.85 µM; with MCF7 breast, over 50 µM; in the test on NCI-H23 lung it was 2.46 µM; in the test on OVCAR-3 ovarian, over 50 µM. For the same compound, in the test on SW-620 colon, the TGI was over 50 µM.
Turning to `CC(C)(C)CC(C)(C)NCc1cc(C(C)(C)C)cc(CNC(C)(C)CC(C)(C)C)c1O`, the GI50 with BT-549 breast is 4.15 µM; in the test with HCT-15 colon it was 3.22 µM; in the test with LOX IMVI melanoma, 1.6 µM; in the test on MCF7 breast, 3.12 µM; in the test on NCI-H23 lung it was 2.42 µM; in the test on OVCAR-3 ovarian, 2.59 µM. Also, the GI50 in the test with SW-620 colon was 2.79 µM. Further, the TGI in the test on BT-549 breast was 14.9 µM; in the test on HCT-15 colon, 12.5 µM; in the test with LOX IMVI melanoma it was 3.1 µM; in the test on MCF7 breast it was 11.3 µM; in the test with NCI-H23 lung, 7.8 µM; in the test with OVCAR-3 ovarian, 7 µM. Further, the TGI in the test with SW-620 colon stood at 12.4 µM.
For `COc1cc(Nc2nc3ccccc3cc2C(=O)Nc2ccc(F)c(F)c2)cc(OC)c1OC`, the GI50 in the test with BT-549 breast is 2.48 µM; with HCT-15 colon it was 2.91 µM; with LOX IMVI melanoma, 2.66 µM; with MCF7 breast, 2.16 µM; with NCI-H23 lung it was 2.84 µM; in the test with OVCAR-3 ovarian, 2.56 µM. Also, the GI50 in the test with SW-620 colon was 3.53 µM. For the same compound, the TGI is 6.54 µM with BT-549 breast; over 100 µM with HCT-15 colon; 8.75 µM with LOX IMVI melanoma; 8.4 µM in the test with MCF7 breast; 8.51 µM with NCI-H23 lung; 6.96 µM with OVCAR-3 ovarian. The same compound came in with a TGI in the test on SW-620 colon of over 100 µM.
